# Data: paper PMC9743128, “Phenotype-based screening rediscovered benzopyran-embedded microtubule inhibitors as anti-neuroinflammatory agents by modulating the tubulin–p65 interaction” (Experimental & Molecular Medicine, 2022)
# Assays:
# [1] = system: TNF-α secretion in BV-2 cells; test: TNF-α ELISA of culture medium after LPS; type: cell-based, murine; conditions: 10 μM
# Experimental: BV-2 and RAW264.7 cells were treated with compounds in the absence or presence of LPS (100 ng/ml). After 24 h, TNF-α levels in the culture medium were measured using a TNF-α ELISA kit (R&D Systems; DY410) according to the manufacturer’s protocol. Briefly, capture antibodies were coated on 96-well Maxisorp Nunc-Immuno plates (Thermo; #439454) for 1 h and washed with PBS containing 0.05% Tween-20 (PBST) three times. The plates were blocked with 1% BSA-PBS for 1 h and washed with PBST three times. Culture medium was added to the 96-well plate for 1 h and washed with PBST three times. Biotinylated detection antibody was added to the 96-well plate for 1 h and washed with PBST three times. Streptavidin–horseradish peroxidase (HRP) was added to the plate for 20 min and washed with PBST three times. After 20 min of incubation with TMB substrate (Thermo; #002023), TMB oxidation was stopped by adding 2 N H2SO4. The absorbance at 450 nm, 540 nm, and 570 nm was measured using a microplate reader (BioTek; Synergy). The following formula was used to calculate the net signal: OD450nm–(OD540nm + OD570nm)/2.
# Fig. 2 SB26019 has anti-inflammatory activity via the accumulation of tubulin monomers. SB26019 (10 μM for 6 h) regulated the mRNA levels (a) and protein levels (b) of downstream genes of NF-κB in BV-2 murine microglial cells more efficiently than the other known tubulin modulators (n = 3). c Both tubulin modulators (10 μM for 6 h) and transient Flag-tagged α-tubulin overexpression increased the total amount of tubulin monomers. d Quantification of the amount of tubulin polymer vs. monomer in (c). Tubulin modulators (10 μM for 6 h) and transient Flag-tagged α-tubulin overexpression proportionally regulated the NF-κB signaling pathway at the mRNA (e) and protein levels f in RAW264.7 murine macrophage cells (n = 3). Data are presented as the mean ± SD (ns, not significant, p > 0.05; *p < 0.05; **p < 0.01; ***p < 0.001).
# [2] = system: NF-κB signaling pathway in BV-2 microglial cells; test: qPCR of NF-κB downstream genes after LPS; type: cell-based, murine; conditions: BV-2 cells, dose-dependent
# Experimental: After cell lysis with RLT buffer (Qiagen), RNA was extracted using the RNAeasy PLUS Mini Kit (Qiagen; #74136). The resulting cDNA was generated using the AccuPower CycleScript RT PreMix (dT20) kit (Bioneer; K2044) on a C1000 Touch Thermal Cycler (Bio-Rad; #1841000). qPCR was performed using a KAPA SYBR® FAST qPCR Master Mix (2×) Universal Kit (Kapa; KK4605) on a StepOne Real-Time PCR system (Applied Biosystems; #4376357). The cycling threshold value of the endogenous control gene GAPDH was subtracted from the cycling threshold value of each target gene to calculate the shift in cycling threshold (ΔCT). […] The primer sequence information for this analysis is shown in Supplementary Table 3.
# NF-κB is a central mediator that induces proinflammatory cytokines, including TNF-α, IL-1β, IL-6, and chemokines. […] The expression level of the proinflammatory cytokine TNF-α was also monitored with SB26019 treatment.
# Fig. 2 SB26019 has anti-inflammatory activity via the accumulation of tubulin monomers. […]
# IκB in J774A.1 cells = test: Western blot of IκB; type: cell-based; conditions: murine macrophage cells; inhibited by MG132 pretreatment
# Experimental: The proteome was analyzed by SDS‒PAGE and transferred to PVDF membranes (Bio-Rad; BR162-0177). The membranes were blocked with 2% BSA in Tris-buffered saline containing 0.1% Tween-20 (TBST) for 1 h. To detect the desired proteins, the membranes were incubated overnight at 4 °C with the primary antibodies—1:1000 dilution of α-tubulin (CST; #3873), β-tubulin (CST; #2146), IκB (CST; #4814), caspase-1 (CST; #24232), cleaved caspase-1 (CST; #89332), IL-1β (CST; #31202), cleaved IL-1β (CST; #63124), acetylated α-tubulin (CST; #5335), p65 (Abcam; ab16502), FLAG (Abcam; ab49763); and 1:2,000 dilution of GAPDH (CST; #2118), β-actin (CST; #4970), and LMNB1 (Abcam; ab16048). After washing with TBST, the resulting membranes were exposed to HRP-conjugated secondary antibody—1:5000 dilution of anti-rabbit (CST; #7074) and anti-mouse (CST; #7076)—for 1 h at room temperature. After washing with TBST, the membranes were incubated with an enhanced chemiluminescence (ECL) prime kit (Cytiva; RPN2232). Chemiluminescent signals from the desired proteins were detected using ChemiDoc. […]
# To understand the inhibitory mechanism of p65 nuclear translocation by SB26019, the expression levels of p65, IκB, and tubulin monomers were monitored upon SB26019 treatment in murine macrophage cells. […] To test this hypothesis, we monitored protein‒protein interactions among p65, IκB, and tubulin with immunoprecipitation. […]
# [3] = Cell viability assay (EZ-Cytox); conditions: mouse, BV-2 microglial cells
# Experimental: (§1) A total of 40,000 cells were seeded on a 96-well plate and incubated for 18 h. After 6-, 12- and 24-h compound treatment, 10 μL of EZ-Cytox solution (Dogen; EZ-BULK150) was added to the 96-well plate. After 30 min, the absorbance at 455 nm was measured using a microplate reader (BioTek; Synergy).
# (§2) (n=6). Data are presented as the mean ± SD.
# BV-2 cells = test: Cell viability assay (EZ-Cytox); conditions: BV-2, various time points
# Experimental: as §1, §2
compound,measurement,setting,value
COc1ccc2c(c1O)OC(C)(C)C=C2c1cccc2c1oc1ccccc12 [Compound 8],TNF-α levels compared to that of the DMSO control,[1],< 50%
same,"mRNA of inflammatory marker genes (Ccl2, Cxcl10, Il-1β, Il-6, Nos2, Tnf)",[2],suppressed the production of inflammatory marker genes
same,IκB degradation,IκB in J774A.1 cells,induced IκB degradation in a time- and dose-dependent manner
same,viability at 10 µM,[3],108%
same,Cytotoxicity (cell viability curve),BV-2 cells,without considerable cytotoxicity
